Test results reported in article PMC8292404 (British Journal of Cancer, 2021).
Where two headings read alike, the source gives them in different places.

What was measured:
aHCC with MET alteration = test system: aHCC with MET alteration; design: method as in PMID 31853265; conditions: cited from earlier work
[1] = Phase 1b: pharmacokinetics at Cycle 1, Day 15; conditions: human, in vivo
Experimental: (§1) Additional patients were enrolled at the RP2D.
(§2) The primary endpoint in Phase 1b was incidence of dose-limiting toxicities (DLTs) during Cycle 1. Details of DLTs are defined in Supplementary Table 3. Pharmacokinetics (PK) endpoints, including Cmax, and area under the concentration–time curve over the dosing interval at steady state (AUCτ,ss), were evaluated at Cycle 1, Day 15 as a secondary endpoint in Phase 1b. Selected efficacy measures were evaluated as secondary endpoints in Phase 1b.
(§3) Continuous variables, including PK data, were summarised using descriptive statistics; qualitative variables were summarised by means of counts and percentages.

[2] = test system: sorafenib pretreated advanced hepatocellular carcinoma (aHCC); assay: Phase 1b: tumour response and survival (RECIST v1.1, investigator); type: in vivo, human; conditions: for Best overall response CR / Best overall response Not evaluable / Best overall response PD / Best overall response PR / Best overall response SD: investigator RECIST v1.1
From the text: This was an open-label, multicentre, integrated, Phase 1b/2 trial conducted across Europe and the US in patients with aHCC who had failed sorafenib treatment.
(§4) In both study phases, eligible patients were ≥18 years old with aHCC, Child–Pugh Class A liver function score, Eastern Cooperative Oncology Group performance status 0 or 1, and measurable disease defined by Response Evaluation Criteria In Solid Tumors (RECIST) v1.1. […] Exclusion criteria included any prior systemic anti-cancer treatment for aHCC (besides sorafenib) and presence of symptomatic or untreated brain metastases. Full inclusion and exclusion criteria are shown in Supplementary Table 1.
In Phase 2, patients were required to have MET overexpression, based on assessment of a tumour biopsy sample collected after sorafenib discontinuation and within 28 days before the first day of study treatment. MET overexpression was defined as moderate (2+) or strong (3+) staining for MET in ≥50% of tumour cells by immunohistochemistry (IHC) using the pharmDx anti-total MET (D1C2) rabbit monoclonal antibody (Dako, Agilent Technologies, Inc., Santa Clara, CA) (Supplementary Table 2). MET status was not required for Phase 1b, but was determined retrospectively in a biopsy sample collected within 28 days before the first day of study treatment. MET amplification status was determined for patients in Phase 1b and 2 using formalin-fixed paraffin-embedded tumour material by fluorescent in situ hybridisation. MET amplification was defined as MET:CEP7 ratio ≥2 or mean gene copy number ≥5.
as §1, §2
In both phases, tumour assessments were performed per RECIST v1.1 and modified RECIST[29] v1.1 on Day 1 of every second cycle from Cycle 3 to 13, and Day 1 of every fourth cycle thereafter. Exploratory endpoints included biomarkers of MET pathway activity (including MET amplification status).
as §3
Tumour response (best overall response, ORR, DCR) and biological response were summarised, along with corresponding two-sided exact Clopper–Pearson 90% confidence intervals (CIs). Kaplan–Meier estimates of median PFS, TTP, time to symptomatic progression and OS are presented, along with 90% CIs (calculated using the two-sided exact Clopper–Pearson method). All statistical analyses were performed using SAS® Software version 9.4 (Statistical Analysis System, SAS-Institute, Cary, North Carolina, US).

[3] = moderate (Child–Pugh B) hepatic impairment relative to control patients; cited from earlier work
[4] = test system: patients with sorafenib pretreated advanced hepatocellular carcinoma (aHCC); assay: Phase 1b dose escalation ('3 + 3'): DLTs and adverse events; type: in vivo
From the text: as §4, §1, §2
In Phase 2, the primary endpoint was progression-free survival (PFS) status after 12 weeks of treatment, as assessed by the investigator per RECIST v1.1. Secondary endpoints included TTP, time to symptomatic progression, objective response rate (ORR), disease control rate (DCR) (all investigator-assessed and per RECIST v1.1), PFS per modified RECIST v1.1 (investigator-assessed), OS and biological response (defined as a decrease in AFP >20%). As sensitivity analyses, PFS and TTP were also evaluated by independent review. Safety was assessed via reporting of adverse events (AEs), graded according to National Cancer Institute Common Terminology and Criteria for Adverse Events v4.0.
as §3
Patients who were replaced during Cycle 1 were excluded from the analysis set.

[5] = Phase 1b, 300 mg cohort (n = 4)
[6] = Phase 1b, 500 mg cohort (n = 13)

CNC(=O)c1ccc(-c2cnc3ncc(Cc4ccc5ncccc5c4)n3n2)cc1F [capmatinib]
objective response (aHCC with MET alteration; 3/10 patients, MET IHC 3+, or 2+ with MET gene copy number ≥5): 30% | objective response (aHCC with MET alteration; 3/30 patients, MET H-score ≥50%, MET:CEP7 ratio ≥2 or MET gene copy number ≥5): 10%

CN1CCC(COc2cnc(-c3cccc(Cn4nc(-c5cccc(C#N)c5)ccc4=O)c3)nc2)CC1 [tepotinib]
AUC ([1]; 300 mg QD, geometric mean (geometric CV 18.2%)): 15200 ng·h/mL | Cmax ([1]; 300 mg QD, geometric mean (geometric CV 19.6%)): 734 ng/mL | Cmax ([1]; 500 mg QD, geometric mean (geometric CV 44.6%)): 677 ng/mL | AUC ([1]; 500 mg QD, geometric mean (geometric CV 50.4%)): 12900 ng·h/mL | disease control [2, 5]: 50% | objective responses [2, 5]: 50% | disease control [2, 6]: 30.8% | objective responses [2, 6]: 0% | DCR ([2]; Phase 1b, MET IHC 0): 100.0% | objective responses ([2]; Phase 1b, MET IHC 0 (n = 1)): 0% | DCR ([2]; Phase 1b, MET IHC 1+): 40.0% | objective responses ([2]; Phase 1b, MET IHC 1+ (n = 5)): 20% | DCR ([2]; Phase 1b, MET IHC 2+): 42.9% | objective responses ([2]; Phase 1b, MET IHC 2+ (n = 7)): 14.3% | DCR ([2]; Phase 1b, MET IHC 3+): 0% | objective responses ([2]; Phase 1b, MET IHC 3+ (n = 2)): 0.0% | Median TTP ([2]; Phase 1b, N = 17): 2.1 months | median OS ([2]; Phase 1b, N = 17): 7.2 months | median PFS ([2]; Phase 1b, N = 17): 1.5 months | patients who had died at the time of the analysis ([2]; Phase 1b, N = 17): 82.4% | patients with disease progression at the time of the analysis ([2]; Phase 1b, N = 17): 70.6% | disease control ([2]; Phase 1b, overall (N = 17)): 35.3% | best overall response partial response (PR) ([2]; Phase 1b, two of 17 patients, both 300 mg): 11.8% | Best overall response CR ([2]; Phase 1b 300 mg/day (n = 4)): 0 n (%) | Best overall response Not evaluable ([2]; Phase 1b 300 mg/day (n = 4)): 1 (25.0) n (%) | Best overall response PD ([2]; Phase 1b 300 mg/day (n = 4)): 1 (25.0) n (%) | Best overall response PR ([2]; Phase 1b 300 mg/day (n = 4)): 2 (50.0) n (%) | Best overall response SD ([2]; Phase 1b 300 mg/day (n = 4)): 0 n (%) | Best overall response CR ([2]; Phase 1b 500 mg/day (n = 13)): 0 n (%) | Best overall response Not evaluable ([2]; Phase 1b 500 mg/day (n = 13)): 1 (7.7) n (%) | Best overall response PD ([2]; Phase 1b 500 mg/day (n = 13)): 8 (61.5) n (%) | Best overall response PR ([2]; Phase 1b 500 mg/day (n = 13)): 0 n (%) | Best overall response SD ([2]; Phase 1b 500 mg/day (n = 13)): 4 (30.8) n (%) | Best overall response CR ([2]; Phase 1b Total (N = 17)): 0 n (%) | Best overall response Not evaluable ([2]; Phase 1b Total (N = 17)): 2 (11.8) n (%) | Best overall response PD ([2]; Phase 1b Total (N = 17)): 9 (52.9) n (%) | Best overall response PR ([2]; Phase 1b Total (N = 17)): 2 (11.8) n (%) | Best overall response SD ([2]; Phase 1b Total (N = 17)): 4 (23.5) n (%) | reduction in exposure, AUC from time 0 to infinity [3]: 12% | reduction in exposure, Cmax [3]: 29% | patients with at least one Grade ≥3 treatment-related AE [4]: 23.5% | patients with at least one treatment-related AE [4]: 82.4% | peripheral oedema, AE of any cause [4]: 76.5% | dose-limiting toxicities (DLTs) during Cycle 1 ([4]; 300 and 500 mg QD cohorts): no DLTs | AEs of any cause that led to death ([4]; N = 17): 23.5% | patients with Grade ≥3 events of any cause ([4]; N = 17): 58.8% | permanently discontinued treatment due to AEs of any cause ([4]; N = 17): 17.6% | permanently discontinued treatment due to treatment-related AEs ([4]; N = 17 (peripheral oedema)): 5.9%
